Data from patent US6689773B2, “Uracil substituted phenyl sulfamoyl carboxamides” (BASF Aktiengesellschaft, priority 2000, dated 2004).

Assays:
Format in all cases: in vivo
[1] = tested on: ABUTH, Velvetleaf, Abutilon theophrasti, Medic.; test: Postemergence herbicidal evaluation (Example 147); conditions: rating scale 0-9, two to three weeks after treatment
Experimental: (§1) Seedling plants were grown in jiffy flats for about two weeks. The test compounds were dispersed in 80/20 acetone/water mixtures containing 1.0% SUN-IT®II, a methylated seed oil, in sufficient quantities to provide the equivalent of about 0.016 to 0.032 kg per hectare of active compound when applied to the plants through a spray nozzle operating at 40 psi for a predetermined time. After spraying, the plants were placed on greenhouse benches and were cared for in accordance with conventional greenhouse procedures. Approximately two to three weeks after treatment, the seedling plants were examined and rated according to the rating scale (0-9) set forth below. Where more than one test is involved for a given compound, the data are averaged. [table] The scale is based upon a visual observation of plant stand, vigor, malformation, size, chlorosis and overall plant appearance as compared with a control. Plant species employed in these evaluations are reported by header abbreviation, common name and scientific name. [table]

[2] = tested on: ALOMY, Blackgrass, Alopecurus myosuroides; test: Postemergence herbicidal evaluation (Example 147); conditions: rating scale 0-9, two to three weeks after treatment
Experimental: as §1

[3] = tested on: AMBEL, Ragweed, Common, Ambrosia artemiisifolia, L.; test: Postemergence herbicidal evaluation (Example 147); conditions: rating scale 0-9, two to three weeks after treatment
Experimental: as §1

[4] = tested on: CHEAL, Lambsquarters, Chenopodium album, L. Common; test: Postemergence herbicidal evaluation (Example 147); conditions: rating scale 0-9, two to three weeks after treatment
Experimental: as §1

[5] = tested on: DIGSA, Crabgrass, (Hairy) L, Digitaria sanguinalis, (L)Scop; test: Postemergence herbicidal evaluation (Example 147); conditions: rating scale 0-9, two to three weeks after treatment
Experimental: as §1

[6] = tested on: ECHCG, Barnyardgrass, Echinochloa crusgalli, (L.)Beau; test: Postemergence herbicidal evaluation (Example 147); conditions: rating scale 0-9, two to three weeks after treatment
Experimental: as §1

[7] = tested on: GLXMA, Soybean, Glycine max, (L.) Merr.; test: Postemergence herbicidal evaluation (Example 147); conditions: rating scale 0-9, two to three weeks after treatment
Experimental: as §1

[8] = tested on: IPOHE, Morningglory, Ivyleaf, Ipomoea hederacea, (L)Jacq.; test: Postemergence herbicidal evaluation (Example 147); conditions: rating scale 0-9, two to three weeks after treatment
Experimental: as §1

[9] = tested on: SETVI, Green foxtail, Setaria viridis, (L.)Beau; test: Postemergence herbicidal evaluation (Example 147); conditions: rating scale 0-9, two to three weeks after treatment
Experimental: as §1

[10] = tested on: TRZAW, Winter wheat, Tritium Aestivum, L. (Winter); test: Postemergence herbicidal evaluation (Example 147); conditions: rating scale 0-9, two to three weeks after treatment
Experimental: as §1

[11] = tested on: XANST, Cocklebur, Xanthium strumariam; test: Postemergence herbicidal evaluation (Example 147); conditions: rating scale 0-9, two to three weeks after treatment
Experimental: as §1

[12] = tested on: ZEAMX, Field corn, Zea mays L.; test: Postemergence herbicidal evaluation (Example 147); conditions: rating scale 0-9, two to three weeks after treatment
Experimental: as §1

[13] = tested on: ABUTH, Velvetleaf, Abutilon theophrasti, Medic.; test: Preemergence herbicidal evaluation (Example 148); conditions: rating scale 0-9, two to four weeks after treatment
Experimental: (§2) The scale is based upon a visual observation of plant stand, vigor, malformation, size, chlorosis and overall plant appearance as compared with a control.
(§3) The herbicidal activity of the compounds of the present invention was evaluated by the following tests wherein the seeds of a variety of monocotyledonous and dicotyledonous plants were separately mixed with potting soil and planted on top of approximately one inch of soil in separate pint cups. After planting, the cups were sprayed with the selected aqueous acetone solution containing test compound in sufficient quantity to provide the equivalent of about 0.125 to 0.250 kg per hectare of test compound per cup. The treated cups were then placed on greenhouse benches, watered and cared for in accordance with conventional greenhouse procedures. From two to four weeks after treatment, the tests were terminated and each cup was examined and rated according to the rating system provided in Example 94. When more than one test was performed for a given compound, the data were averaged.

[14] = tested on: ALOMY, Blackgrass, Alopecurus myosuroides; test: Preemergence herbicidal evaluation (Example 148); conditions: rating scale 0-9, two to four weeks after treatment
Experimental: as §2, §3

[15] = tested on: AMBEL, Ragweed, Common, Ambrosia artemiisifolia, L.; test: Preemergence herbicidal evaluation (Example 148); conditions: rating scale 0-9, two to four weeks after treatment
Experimental: as §2, §3

[16] = tested on: CHEAL, Lambsquarters, Chenopodium album, L. Common; test: Preemergence herbicidal evaluation (Example 148); conditions: rating scale 0-9, two to four weeks after treatment
Experimental: as §2, §3

[17] = tested on: DIGSA, Crabgrass, (Hairy) L, Digitaria sanguinalis, (L)Scop; test: Preemergence herbicidal evaluation (Example 148); conditions: rating scale 0-9, two to four weeks after treatment
Experimental: as §2, §3

[18] = tested on: ECHCG, Barnyardgrass, Echinochloa crusgalli, (L.)Beau; test: Preemergence herbicidal evaluation (Example 148); conditions: rating scale 0-9, two to four weeks after treatment
Experimental: as §2, §3

[19] = tested on: IPOHE, Morningglory, Ivyleaf, Ipomoea hederacea, (L)Jacq.; test: Preemergence herbicidal evaluation (Example 148); conditions: rating scale 0-9, two to four weeks after treatment
Experimental: as §2, §3

[20] = tested on: SETVI, Green foxtail, Setaria viridis, (L.)Beau; test: Preemergence herbicidal evaluation (Example 148); conditions: rating scale 0-9, two to four weeks after treatment
Experimental: as §2, §3

[21] = tested on: TRZAW, Winter wheat, Tritium Aestivum, L. (Winter); test: Preemergence herbicidal evaluation (Example 148); conditions: rating scale 0-9, two to four weeks after treatment
Experimental: as §2, §3

[22] = tested on: ZEAMX, Field corn, Zea mays L.; test: Preemergence herbicidal evaluation (Example 148); conditions: rating scale 0-9, two to four weeks after treatment
Experimental: as §2, §3

Cn1c(C(F)(F)F)cc(=O)n(-c2cc(C(=O)NS(=O)(=O)NC(C)(C)C)c(Cl)cc2F)c1=O [Example 65]
9.0: Postemergence herbicidal rating ABUTH ([1]; rate 0.016 kg/ha) | Postemergence herbicidal rating ABUTH ([1]; rate 0.032 kg/ha) | Postemergence herbicidal rating AMBEL ([3]; rate 0.016 kg/ha) | Postemergence herbicidal rating AMBEL ([3]; rate 0.032 kg/ha) | Postemergence herbicidal rating CHEAL ([4]; rate 0.032 kg/ha) | Postemergence herbicidal rating ECHCG ([6]; rate 0.032 kg/ha) | Postemergence herbicidal rating IPOHE ([8]; rate 0.016 kg/ha) | Postemergence herbicidal rating IPOHE ([8]; rate 0.032 kg/ha) | Postemergence herbicidal rating XANST ([11]; rate 0.016 kg/ha) | Postemergence herbicidal rating XANST ([11]; rate 0.032 kg/ha) | Preemergence herbicidal rating ABUTH ([13]; rate 0.125 kg/ha) | Preemergence herbicidal rating ABUTH ([13]; rate 0.25 kg/ha) | Preemergence herbicidal rating AMBEL ([15]; rate 0.125 kg/ha) | Preemergence herbicidal rating AMBEL ([15]; rate 0.25 kg/ha) | Preemergence herbicidal rating CHEAL ([16]; rate 0.125 kg/ha) | Preemergence herbicidal rating CHEAL ([16]; rate 0.25 kg/ha) | Preemergence herbicidal rating DIGSA ([17]; rate 0.25 kg/ha) | Preemergence herbicidal rating ECHCG ([18]; rate 0.25 kg/ha) | Preemergence herbicidal rating IPOHE ([19]; rate 0.125 kg/ha) | Preemergence herbicidal rating IPOHE ([19]; rate 0.25 kg/ha)
5.5: Postemergence herbicidal rating TRZAW ([10]; rate 0.016 kg/ha)
0.0: Preemergence herbicidal rating ALMOY ([14]; rate 0.125 kg/ha) | Preemergence herbicidal rating ALMOY ([14]; rate 0.25 kg/ha) | Preemergence herbicidal rating ZEAMX ([22]; rate 0.125 kg/ha)
6.0: Postemergence herbicidal rating DIGSA ([5]; rate 0.016 kg/ha) | Preemergence herbicidal rating SETVI ([20]; rate 0.25 kg/ha)
1.0: Preemergence herbicidal rating TRZAW ([21]; rate 0.125 kg/ha) | Preemergence herbicidal rating TRZAW ([21]; rate 0.25 kg/ha) | Preemergence herbicidal rating ZEAMX ([22]; rate 0.25 kg/ha)
6.5: Postemergence herbicidal rating TRZAW ([10]; rate 0.032 kg/ha)
8.5: Postemergence herbicidal rating GLXMA ([7]; rate 0.032 kg/ha)
7.5: Postemergence herbicidal rating ZEAMX ([12]; rate 0.016 kg/ha)
3.0: Postemergence herbicidal rating ALMOY ([2]; rate 0.032 kg/ha) | Preemergence herbicidal rating SETVI ([20]; rate 0.125 kg/ha)
2.0: Postemergence herbicidal rating ALMOY ([2]; rate 0.016 kg/ha)
7.0: Preemergence herbicidal rating DIGSA ([17]; rate 0.125 kg/ha)
8.0: Postemergence herbicidal rating CHEAL ([4]; rate 0.016 kg/ha) | Postemergence herbicidal rating DIGSA ([5]; rate 0.032 kg/ha) | Postemergence herbicidal rating ECHCG ([6]; rate 0.016 kg/ha) | Postemergence herbicidal rating GLXMA ([7]; rate 0.016 kg/ha) | Postemergence herbicidal rating SETVI ([9]; rate 0.016 kg/ha) | Postemergence herbicidal rating SETVI ([9]; rate 0.032 kg/ha) | Postemergence herbicidal rating ZEAMX ([12]; rate 0.032 kg/ha) | Preemergence herbicidal rating ECHCG ([18]; rate 0.125 kg/ha)

CCCN(C)S(=O)(=O)NC(=O)c1cc(-n2c(=O)cc(C(F)(F)F)n(C)c2=O)c(F)cc1Cl [Example 67]
6.5: Postemergence herbicidal rating TRZAW ([10]; rate 0.016 kg/ha)
7.0: Postemergence herbicidal rating TRZAW ([10]; rate 0.032 kg/ha) | Preemergence herbicidal rating AMBEL ([15]; rate 0.25 kg/ha) | Preemergence herbicidal rating DIGSA ([17]; rate 0.125 kg/ha)
8.0: Postemergence herbicidal rating ECHCG ([6]; rate 0.016 kg/ha) | Postemergence herbicidal rating ECHCG ([6]; rate 0.032 kg/ha) | Postemergence herbicidal rating GLXMA ([7]; rate 0.016 kg/ha) | Postemergence herbicidal rating SETVI ([9]; rate 0.016 kg/ha) | Postemergence herbicidal rating SETVI ([9]; rate 0.032 kg/ha) | Preemergence herbicidal rating DIGSA ([17]; rate 0.25 kg/ha) | Preemergence herbicidal rating ECHCG ([18]; rate 0.125 kg/ha) | Preemergence herbicidal rating SETVI ([20]; rate 0.125 kg/ha) | Preemergence herbicidal rating SETVI ([20]; rate 0.25 kg/ha)
0.0: Preemergence herbicidal rating ALMOY ([14]; rate 0.125 kg/ha) | Preemergence herbicidal rating ALMOY ([14]; rate 0.25 kg/ha) | Preemergence herbicidal rating TRZAW ([21]; rate 0.125 kg/ha) | Preemergence herbicidal rating ZEAMX ([22]; rate 0.125 kg/ha)
1.0: Preemergence herbicidal rating TRZAW ([21]; rate 0.25 kg/ha) | Preemergence herbicidal rating ZEAMX ([22]; rate 0.25 kg/ha)
7.5: Postemergence herbicidal rating ZEAMX ([12]; rate 0.016 kg/ha) | Postemergence herbicidal rating ZEAMX ([12]; rate 0.032 kg/ha)
9.0: Postemergence herbicidal rating ABUTH ([1]; rate 0.016 kg/ha) | Postemergence herbicidal rating ABUTH ([1]; rate 0.032 kg/ha) | Postemergence herbicidal rating AMBEL ([3]; rate 0.016 kg/ha) | Postemergence herbicidal rating AMBEL ([3]; rate 0.032 kg/ha) | Postemergence herbicidal rating CHEAL ([4]; rate 0.016 kg/ha) | Postemergence herbicidal rating CHEAL ([4]; rate 0.032 kg/ha) | Postemergence herbicidal rating IPOHE ([8]; rate 0.016 kg/ha) | Postemergence herbicidal rating IPOHE ([8]; rate 0.032 kg/ha) | Postemergence herbicidal rating XANST ([11]; rate 0.016 kg/ha) | Postemergence herbicidal rating XANST ([11]; rate 0.032 kg/ha) | Preemergence herbicidal rating ABUTH ([13]; rate 0.125 kg/ha) | Preemergence herbicidal rating ABUTH ([13]; rate 0.25 kg/ha) | Preemergence herbicidal rating AMBEL ([15]; rate 0.125 kg/ha) | Preemergence herbicidal rating CHEAL ([16]; rate 0.125 kg/ha) | Preemergence herbicidal rating CHEAL ([16]; rate 0.25 kg/ha) | Preemergence herbicidal rating ECHCG ([18]; rate 0.25 kg/ha) | Preemergence herbicidal rating IPOHE ([19]; rate 0.125 kg/ha) | Preemergence herbicidal rating IPOHE ([19]; rate 0.25 kg/ha)
3.0: Postemergence herbicidal rating ALMOY ([2]; rate 0.032 kg/ha)
8.5: Postemergence herbicidal rating GLXMA ([7]; rate 0.032 kg/ha)
2.0: Postemergence herbicidal rating ALMOY ([2]; rate 0.016 kg/ha)
6.0: Postemergence herbicidal rating DIGSA ([5]; rate 0.016 kg/ha) | Postemergence herbicidal rating DIGSA ([5]; rate 0.032 kg/ha)
